Experimental data taken from patent US12655116B2, “Substituted isophthalic acid diamides” (Bayer Aktiengesellschaft, priority 2020, dated 2026).

Experiments:
ABUTH [1] = assay: Pre-emergence herbicidal action against ABUTH; type: in vivo, Abutilon theophrasti; conditions: Abutilon theophrasti, 504 h; for pest or weed control at 80 g/ha: scored visually after 3 weeks vs untreated controls (100% = plants have died, 0% = like control plants)
How it was run: (§1)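 Sandy loam pots, seeds covered with soil, then surface-treated with WP or EC formulations at 600–800 l/ha water plus 0.2% wetting agent. Greenhouse, 3 weeks. Percent damage vs untreated controls.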

ALOMY [2] = assay: Pre-emergence herbicidal action against ALOMY; type: in vivo, Alopecurus myosuroides; conditions: Alopecurus myosuroides, 504 h, pre-emergence; for pest or weed control at 80 g/ha: scored visually after 3 weeks vs untreated controls (100% = plants have died, 0% = like control plants)
How it was run: as §1

AMARE [3] = assay: Pre-emergence herbicidal action against AMARE; type: in vivo, Amaranthus retroflexus; conditions: Amaranthus retroflexus, 504 h, scored visually after 3 weeks vs untreated controls, 100% = plants have died, 0% = like control plants
How it was run: as §1

AVEFA [4] = assay: Pre-emergence herbicidal action against AVEFA; type: in vivo, Avena fatua; conditions: Avena fatua, 504 h; 80 g/ha, pre-emergence
How it was run: as §1

ECHCG [5] = assay: Pre-emergence herbicidal action against ECHCG; type: in vivo, Echinochloa crus-galli; conditions: Echinochloa crus-galli, 504 h
How it was run: as §1

MATIN [6] = assay: Pre-emergence herbicidal action against MATIN; type: in vivo, Matricaria inodora; conditions: Tripleurospermum inodorum, 504 h; for pest or weed control at 20 g/ha: dosage 20 g/ha; for pest or weed control at 80 g/ha: dosage 80 g/ha
How it was run: as §1

PHBPU [7] = assay: Pre-emergence herbicidal action against PHBPU; type: in vivo, Pharbitis purpurea; conditions: Ipomoea purpurea, 504 h, dosage 80 g/ha
How it was run: as §1

POLCO = assay: Pre-emergence herbicidal action against POLCO; type: in vivo, Polygonum convolvulus; conditions: Fallopia convolvulus, 504 h; for pest or weed control at 80 g/ha: dosage 80 g/ha
How it was run: as §1

SETVI [8] = assay: Pre-emergence herbicidal action against SETVI; type: in vivo, Setaria viridis; conditions: Setaria viridis, 504 h; for pest or weed control at 20 g/ha: dosage 20 g/ha; for pest or weed control at 80 g/ha: dosage 80 g/ha
How it was run: as §1

VIOTR [9] = assay: Pre-emergence herbicidal action against VIOTR; type: in vivo, Viola tricolor; conditions: Viola tricolor, 504 h; for pest or weed control at 20 g/ha: dosage 20 g/ha; for pest or weed control at 80 g/ha: dosage 80 g/ha
How it was run: as §1

DIGSA [10] = assay: Pre-emergence herbicidal action against DIGSA; type: in vivo, Digitaria sanguinalis; conditions: Digitaria sanguinalis, 504 h; for pest or weed control at 80 g/ha: dosage 80 g/ha
How it was run: as §1

ABUTH [11] = assay: Post-emergence herbicidal action against ABUTH; type: in vivo, Abutilon theophrasti; conditions: Abutilon theophrasti, 504 h, visual assessment about 3 weeks after treatment vs untreated controls; for pest or weed control at 5 g/ha: dosage 5 g/ha; for pest or weed control at 20 g/ha: dosage 20 g/ha
How it was run: (§2)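 Visual % rating (0% = as untreated, 100% = dead) ~3 wk after spraying one-leaf-stage plants grown in sandy loam; WP/EC in water at 600–800 l/ha, 0.2% wetting agent.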

ALOMY [12] = assay: Post-emergence herbicidal action against ALOMY; type: in vivo, Alopecurus myosuroides; conditions: Alopecurus myosuroides, 504 h, dosage 20 g/ha, visual assessment about 3 weeks after treatment vs untreated controls
How it was run: as §2

AMARE [13] = assay: Post-emergence herbicidal action against AMARE; type: in vivo, Amaranthus retroflexus; conditions: Amaranthus retroflexus, 504 h, 20 g/ha, visual assessment about 3 weeks after treatment, 100% = plants have died, 0% = like control plants
How it was run: as §2

AVEFA [14] = assay: Post-emergence herbicidal action against AVEFA; type: in vivo, Avena fatua; conditions: Avena fatua, 504 h, 20 g/ha, visual assessment about 3 weeks after treatment, 100% = plants have died, 0% = like control plants
How it was run: as §2

ECHCG [15] = assay: Post-emergence herbicidal action against ECHCG; type: in vivo, Echinochloa crus-galli; conditions: Echinochloa crus-galli, 504 h; for pest or weed control at 5 g/ha: dosage 5 g/ha; for pest or weed control at 20 g/ha: dosage 20 g/ha
How it was run: as §2

MATIN [16] = assay: Post-emergence herbicidal action against MATIN; type: in vivo, Matricaria inodora; conditions: Tripleurospermum inodorum, 504 h; for pest or weed control at 5 g/ha: dosage 5 g/ha; for pest or weed control at 20 g/ha: dosage 20 g/ha
How it was run: as §2

PHBPU [17] = assay: Post-emergence herbicidal action against PHBPU; type: in vivo, Pharbitis purpurea; conditions: Ipomoea purpurea, 504 h, dosage 20 g/ha
How it was run: as §2

SETVI [18] = assay: Post-emergence herbicidal action against SETVI; type: in vivo, Setaria viridis; conditions: Setaria viridis, 504 h; for pest or weed control at 5 g/ha: dosage 5 g/ha; for pest or weed control at 20 g/ha: dosage 20 g/ha
How it was run: as §2

VIOTR [19] = assay: Post-emergence herbicidal action against VIOTR; type: in vivo, Viola tricolor; conditions: Viola tricolor, 504 h
How it was run: as §2

DIGSA [20] = assay: Post-emergence herbicidal action against DIGSA; type: in vivo, Digitaria sanguinalis; conditions: Digitaria sanguinalis, 504 h
How it was run: as §2

VERPE [21] = assay: Pre-emergence herbicidal action against VERPE; type: in vivo, Veronica persica; conditions: Veronica persica, 504 h, dosage 80 g/ha
How it was run: as §1

VERPE [22] = assay: Post-emergence herbicidal action against VERPE; type: in vivo, Veronica persica; conditions: Veronica persica, 504 h, 20 g/ha
How it was run: as §2

Row | SMILES | pest or weed control at 80 g/ha (ABUTH [1]) [%] | pest or weed control at 80 g/ha (ALOMY [2]) [%] | pest or weed control at 20 g/ha (AMARE [3]) [%] | pest or weed control at 80 g/ha (AMARE [3]) [%] | pest or weed control at 80 g/ha (AVEFA [4]) [%] | pest or weed control at 80 g/ha (ECHCG [5]) [%] | pest or weed control at 20 g/ha (MATIN [6]) [%] | pest or weed control at 80 g/ha (MATIN [6]) [%] | pest or weed control at 80 g/ha (PHBPU [7]) [%] | pest or weed control at 80 g/ha (POLCO) [%] | pest or weed control at 20 g/ha (SETVI [8]) [%] | pest or weed control at 80 g/ha (SETVI [8]) [%] | pest or weed control at 20 g/ha (VIOTR [9]) [%] | pest or weed control at 80 g/ha (VIOTR [9]) [%] | pest or weed control at 80 g/ha (DIGSA [10]) [%] | pest or weed control at 5 g/ha (ABUTH [11]) [%] | pest or weed control at 20 g/ha (ABUTH [11]) [%] | pest or weed control at 20 g/ha (AMARE [13]) [%] | pest or weed control at 20 g/ha (AVEFA [14]) [%] | pest or weed control at 5 g/ha (ECHCG [15]) [%] | further results
1 | CCn1nnnc1NC(=O)c1ccc(C(F)(F)F)c(C(=O)NC2CC2)c1OC [Example 2-58] | 100 | 100 | 100 | 100 | 90 | 100 | 100 | 100 | 90 | 80 | 100 | 100 | 100 | 100 | 100 | 100 | 100 | 100 | 80 | 90 | pest or weed control at 20 g/ha (ABUTH [1]; dosage 20 g/ha, scored visually after 3 weeks vs untreated controls, 100% = plants have died, 0% = like control plants, read-out: Pre-emergence action against ABUTH (herbicidal activity in percent)): 100%; pest or weed control at 20 g/ha (ALOMY [2]; 20 g/ha, scored visually after 3 weeks, 100% = plants have died, 0% = like control plants): 90%; pest or weed control at 20 g/ha (DIGSA [10]; dosage 20 g/ha): 100%; pest or weed control at 20 g/ha (ALOMY [12]): 80%; pest or weed control at 20 g/ha (ECHCG [15]): 100%; pest or weed control at 5 g/ha (MATIN [16]): 80%; pest or weed control at 20 g/ha (MATIN [16]): 90%; pest or weed control at 20 g/ha (PHBPU [17]): 90%; pest or weed control at 5 g/ha (SETVI [18]): 90%; pest or weed control at 20 g/ha (SETVI [18]): 100%; pest or weed control at 5 g/ha (VIOTR [19]): 100%; pest or weed control at 20 g/ha (VIOTR [19]): 100%; pest or weed control at 5 g/ha (DIGSA [20]): 100%; pest or weed control at 20 g/ha (DIGSA [20]): 100%
2 | COc1c(C(=O)Nc2nnnn2C)ccc(C(F)(F)F)c1C(=O)NC1CC1 [Example 1-58] | 80 | 90 | 100 | 100 | 80 | 100 | 90 | 100 | 90 | 90 | 100 | 100 | 100 | 100 | 80 | 90 | 90 | 100 | 90 | 90 | pest or weed control at 20 g/ha (ECHCG [5]; 20 g/ha): 100%; pest or weed control at 20 g/ha (POLCO; dosage 20 g/ha): 80%; pest or weed control at 80 g/ha (VERPE [21]): 100%; pest or weed control at 20 g/ha (ECHCG [15]): 90%; pest or weed control at 5 g/ha (MATIN [16]): 80%; pest or weed control at 20 g/ha (MATIN [16]): 90%; pest or weed control at 20 g/ha (PHBPU [17]): 90%; pest or weed control at 5 g/ha (SETVI [18]): 100%; pest or weed control at 20 g/ha (SETVI [18]): 100%; pest or weed control at 20 g/ha (VERPE [22]): 80%; pest or weed control at 5 g/ha (VIOTR [19]): 90%; pest or weed control at 20 g/ha (VIOTR [19]): 100%; pest or weed control at 5 g/ha (DIGSA [20]): 100%; pest or weed control at 20 g/ha (DIGSA [20]): 100%
